In data set [1] the test system is organ slice of cat cerebral cortex (cerebral edema). Nature of the data set: inhibition test on cerebral edema using organ slice of cat cerebral cortex (NaHCO3-stimulated swelling). The class given is cell-based. Particulars: for IC50: Felis catus, 50 min, cat cerebral cortex slices, NaHCO3 stimulated swelling, 50 minutes at 37° C., pH 7.4, read-out: Inhibitory activity cerebral edema (IC50); for Relative activity (Compound A = 1): relative to Compound A = 1. How it is done:
The inhibition test on cerebral edema using organ slice of cat cerebral cortex The test was carried out by the method described in Journal of Medicinal Chemistry, vol. 25 (No. 5) 567 (1982).
That is, brain was isolated from a cat weighing 2-4 kg, slices of about 1 mm in thickness was prepared, the white matter substance was removed, and the gray matter substance (100-150 mg a test) was used for a sample. The sample was added to the following incubation medium and incuvated for 50 minutes at 37° C. After the incubation, the sample was immediately weighed again to determine the swelling weight of the sample. […]
incubation medium (osmotic pressure, 280-290 mOsm/1)
1. Hepes Buffer (pH 7.4) . . . 2.365 ml […]
adjusted to pH 7.4 by NaOH
2. test compounds [dissolved in the presence of tris(hydroxymethyl)aminomethane] or water . . . 0.01 ml 3. 0.2M NaHCO3 (dissolved by Hepes Buffer, giving the final concentration of 10 mM in medium) or Hepes Buffer . . . 0.125 ml The test was carried out by using NaHCO3 as a stimulating agent of swelling.
(A) A percentage of swelling when a slice sample was added to incubation medium comprising Hepes Buffer (1), water (2) and NaHCO3 (3) (defined as maximum of swelling).
(B) A percentage of swelling when a slice sample was added to incubation medium comprising Hepes Buffer ((1)+(3)) and water (2) (defined as maximum inhibition of swelling).
(C) A percentage of swelling when a slice sample was added to incubation medium comprising Hepes Buffer (1), the test compounds in various concentrations (2) and NaHCO3 (3).
Above-mentioned (A), (B) and (C) were determined. Inhibition percentage of the test compounds was caliculated by the following equation: [formula] IC50 value was determined by dose-response curve as a concentration in which inhibition percentage was 50.

A short description of another data set: acute toxicity test. The note with it: in vivo, iv; administered intravenously. From the text: On the other hand, it was confirmed that the acute toxicity of the compounds of the present invention was very weak. […] Therefore, compounds of the present invention may be considered to be sufficiently safe and suitable for medical use.
Data set [2] deals with organ slice of cat cerebral cortex (cerebral edema). The note with it: in words, known DCPIB; cited from earlier work.

This is an account of results in US4640931A, “3-(indian-5-yloxy (or thio)) cyclopentanecarboxylic acid analogues” (Ono Pharmaceutical Co., Ltd., priority 1984, dated 1987).

For orientation: IC50 means the concentration that gives 50% inhibition. A word on the LD50: it is the dose at which mortality reaches 50%. Higher therefore signals lower toxicity.

As to `CC1(C2CCCC2)Cc2cc(O[C@H]3CC[C@H](C(=O)O)C3)c(Cl)c(Cl)c2C1=O` (mixture of isomers) [Ex. 2 (a), (1S, 3S)-3-[((2RS)-2-cyclopentyl-2-methyl-6,7-dichloro-1-oxoindan-5-yl)oxy]cyclopentanecarboxylic acid], in data set [1], the IC50 is 1.5 nM and the “Relative activity (Compound A = 1)” value was 21.3. The LD50 in the data set “acute toxicity test” is 200 to 400 mg/kg.

Regarding `CC1(C2CCCC2)Cc2cc(S[C@H]3CC[C@H](C(=O)O)C3)c(Cl)c(Cl)c2C1=O` (mixture of isomers) [Ex. 2 (b), (1S, 3S)-3-[((2RS)-2-cyclopentyl-2-methyl-6,7-dichloro-1-oxoindan-5-yl)thio]cyclopentanecarboxylic acid], in data set [1], the half-maximal inhibitory concentration (IC50) came to 5.9 nM and the “Relative activity (Compound A = 1)” value is listed as 5.42.

As for `CC1(C2CCCC2)Cc2cc(O[C@H]3CC[C@H](C(=O)O)C3)c(Cl)c(Cl)c2C1=O` (relative stereo) [Ex. 2, 1,3-trans-3-[((2RS)-2-cyclopentyl-2-methyl-6,7-dichloro-1-oxoindan-5-yl)oxy]cyclopentanecarboxylic acid], in data set [1], the IC50 amounted to 2.5 nM and the “Relative activity (Compound A = 1)” value came to 12.8.

On to `C[C@]1(C2CCCC2)Cc2cc(OCCCC(=O)O)c(Cl)c(Cl)c2C1=O` [Compound A, (+)-4-[((2R)-2-cyclopentyl-2-methyl-6,7-dichloro-1-oxoindan-5-yl)oxy]butyric acid, reference compound], for which, in data set [2], the “inhibitory effect on cerebral edema” value is listed as “strong, but the effect is not enough to use in practice”. The IC50 in data set [1] was determined as 32 nM.

Turning to `C[C@@]1(C2CCCC2)Cc2cc(O[C@H]3CC[C@H](C(=O)O)C3)c(Cl)c(Cl)c2C1=O` [Ex. 2 (c), (1S, 3S)-3-[((2S)-2-cyclopentyl-2-methyl-6,7-dichloro-1-oxoindan-5-yl)oxy]cyclopentanecarboxylic acid], in data set [1], the half-maximal inhibitory concentration (IC50) worked out at 1.6 nM and the “Relative activity (Compound A = 1)” value is 20.0.
